Results as given in patent US10556905B2, “Processes for preparing a diazabicyclooctane compound” (priority 2012, dated 2020).
Read-outs that look alike come from different tables or passages of the source.

Experiments:
TEM-1 = target: T1, TEM-1 (Escherichia coli, UniProt P62593); test: β-Lactamase inhibitory activity (nitrocefin hydrolysis), TEM-1; assay type: biochemical; settings: TEM-1 0.1 nM, 100 μM nitrocefin, pre-incubation 30° C. 10 minutes
T1 construct: AmpC, TEM-1, KPC-2 or OXA-2 domain excluding signal peptide was amplified with PCR; made in house; host or cells: Escherichia coli BL21 (DE3), pET-28b(+)
T1 sequence (P62593 24-286 limits assumed): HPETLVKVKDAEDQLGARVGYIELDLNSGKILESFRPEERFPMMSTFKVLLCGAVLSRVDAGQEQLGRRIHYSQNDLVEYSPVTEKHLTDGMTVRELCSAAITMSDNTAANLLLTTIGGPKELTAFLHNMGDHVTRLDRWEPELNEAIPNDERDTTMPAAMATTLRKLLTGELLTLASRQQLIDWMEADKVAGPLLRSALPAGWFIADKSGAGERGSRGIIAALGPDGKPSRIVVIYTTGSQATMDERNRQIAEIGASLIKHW
Description: Using Pseudomonas aeruginosa ATCCBAA-47 genome, plasmid pBR322, Klebsiella pneumoniae ATCCBAA-1705, and P. aeruginosa MSC17696 as a template, each DNA for encoding β-lactamase, AmpC, TEM-1, KPC-2 or OXA-2 domain excluding signal peptide was amplified with PCR. Each of the PCR product was incorporated into pET-28b(+)vector (Merck), introduced into Escherichia coli BL21 (DE3) (Merck), and, under induction of 1 mM isopropyl-β-D-(−)-thiogalactopyranoside (Nacalai Tesque), cultured overnight at 20° C. to express AmpC, TEM-1, KPC-2, and OXA-2. After the bacterial cell was collected, AmpC was purified from the cell extract obtained by ultrasonic treatment, using CM Sepharose Fast Flow (GE Healthcare) and HiTrap Heparin HP (GE Healthcare) at 4° C. TEM-1 was purified with HiTrap SPHP (GE Healthcare), HiTrap Q (GE Healthcare) and Mono Q (GE Healthcare), and KPC-2 was purified with HiTrap SPHP. OXA-2 was purified with HiTrap SPHP and HiTrap Heparin HP.
For the measurement of β-lactamase inhibitory activity, 100 μM (final concentration) nitrocefin (Oxoid) was used as a substrate, and 2.5% DMSO, 10 μg/mL bovine serum derived albumin (Sigma-Aldrich) and 50 mM phosphate buffer at pH 7.0 were used as a reaction solution. […] Nitrocefin was added to each well to be mixed therein, followed by incubation at 30° C. for 20 minutes, and Multiscan Ascent (Thermo Fisher Scientific) was used to measure 492 nm wavelength, thereby measuring nitrocefin hydrolytic activity of β-Lactamase, to determine enzyme inhibitory activity. […] As the inhibitory activity strength, less than 0.1 μM, less than 1 μM, less than 3 μM, less than 10 μM, and 10 μM or more were shown with A, B, C, D, and E respectively.

OXA-2 = target: T2, OXA-2 (Escherichia coli, UniProt P0A1V9); test: biochemical; design: species or system P. aeruginosa
T2 construct: AmpC, TEM-1, KPC-2 or OXA-2 domain excluding signal peptide was amplified with PCR; made in house; host or cells: Escherichia coli BL21 (DE3), pET-28b(+)
T2 sequence (P0A1V9 22-275): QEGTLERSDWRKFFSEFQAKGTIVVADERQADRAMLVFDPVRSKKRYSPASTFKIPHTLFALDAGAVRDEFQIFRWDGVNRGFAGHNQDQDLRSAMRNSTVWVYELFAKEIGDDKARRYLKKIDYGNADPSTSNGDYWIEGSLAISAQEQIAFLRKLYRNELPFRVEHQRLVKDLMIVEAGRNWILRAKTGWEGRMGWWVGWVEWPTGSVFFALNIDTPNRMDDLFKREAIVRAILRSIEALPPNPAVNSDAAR

KPC-2 = target: T3, KPC-2 (Klebsiella pneumoniae, UniProt Q9F663); test: β-Lactamase inhibitory activity (nitrocefin hydrolysis), KPC-2; assay type: biochemical; settings: KPC-2 0.5 nM, 100 μM nitrocefin, pre-incubation 30° C. 10 minutes
T3 construct: AmpC, TEM-1, KPC-2 or OXA-2 domain excluding signal peptide was amplified with PCR; made in house; host or cells: Escherichia coli BL21 (DE3), pET-28b(+)
T3 sequence (Q9F663 25-293, looked up): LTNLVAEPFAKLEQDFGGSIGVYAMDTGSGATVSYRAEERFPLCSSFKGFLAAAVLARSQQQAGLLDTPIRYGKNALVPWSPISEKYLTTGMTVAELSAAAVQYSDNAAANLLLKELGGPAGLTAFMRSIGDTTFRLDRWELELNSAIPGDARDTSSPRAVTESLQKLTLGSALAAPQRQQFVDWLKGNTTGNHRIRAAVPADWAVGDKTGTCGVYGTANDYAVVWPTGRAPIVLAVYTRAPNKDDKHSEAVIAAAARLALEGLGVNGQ

AmpC = target: T4, AmpC (Pseudomonas aeruginosa, UniProt P24735); test: biochemical
T4 construct: AmpC, TEM-1, KPC-2 or OXA-2 domain excluding signal peptide was amplified with PCR; made in house; host or cells: Escherichia coli BL21 (DE3), pET-28b(+)
T4 sequence (P24735 27-397): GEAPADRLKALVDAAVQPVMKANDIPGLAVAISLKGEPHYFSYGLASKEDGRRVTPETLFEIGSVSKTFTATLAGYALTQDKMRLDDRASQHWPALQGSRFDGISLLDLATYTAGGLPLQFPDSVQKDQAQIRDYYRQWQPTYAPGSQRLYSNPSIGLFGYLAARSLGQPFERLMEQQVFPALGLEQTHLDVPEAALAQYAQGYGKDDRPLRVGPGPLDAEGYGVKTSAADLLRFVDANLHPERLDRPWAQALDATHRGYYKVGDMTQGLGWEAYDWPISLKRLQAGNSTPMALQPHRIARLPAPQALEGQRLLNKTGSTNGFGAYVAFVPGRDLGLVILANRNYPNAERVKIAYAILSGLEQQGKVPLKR

[1] = OXA-2 2 nM, 100 μM nitrocefin, pre-incubation 30° C. 10 minutes, read-out: β-Lactamase inhibitory activity OXA-2 (IC50)

Compound	IC50 (TEM-1) [nM]	IC50 (OXA-2; [1]) [nM]	IC50 (KPC-2) [nM]	IC50 (AmpC) [nM]	IC50 (OXA-2) [nM]
NCc1ccc(C(=O)NNC(=O)[C@@H]2CC[C@@H]3CN2C(=O)N3OS(=O)(=O)O)cc1 (racemic) [Example 32, (2SR,5RS)—N′-(4-(Aminomethyl)benzoyl)-7-oxo-6-(sulfooxy)-1,6-diazabicyclo[3.2.1]octane-2-carbohydrazide]	< 100	3000 to 10000	100 to 1000	< 100	–
CCNCCONC(=O)[C@@H]1CC[C@@H]2CN1C(=O)N2OS(=O)(=O)O [Example 62, (2S,5R)—N-[2-(Ethylamino)ethoxy]-7-oxo-6-(sulfooxy)-1,6-diazabicyclo[3.2.1]octane-2-carboxamide]	< 100	1000 to 3000	100 to 1000	100 to 1000	–
O=C(NOC1CNC1)[C@@H]1CC[C@@H]2CN1C(=O)N2OS(=O)(=O)O [Example 79, (2S,5R)—N-(Azetidin-3-yloxy)-7-oxo-6-(sulfooxy)-1,6-diazabicyclo[3.2.1]octane-2-carboxamide]	< 100	1000 to 3000	1000 to 3000	100 to 1000	–
O=C(NO[C@@H]1CCNC1)[C@@H]1CC[C@@H]2CN1C(=O)N2OS(=O)(=O)O [Example 80, (2S,5R)-7-Oxo-N-[(3R)-pyrrolidin-3-yloxy]-6-(sulfooxy)-1,6-diazabicyclo[3.2.1]octane-2-carboxamide]	< 100	100 to 1000	1000 to 3000	100 to 1000	–
O=C(NOCC1CCC1)[C@@H]1CC[C@@H]2CN1C(=O)N2OS(=O)(=O)O [Example 58, Sodium (2S,5R)—N-(cyclobutylmethoxy)-7-oxo-6-(sulfooxy)-1,6-diazabicyclo[3.2.1]octane-2-carboxamide]	< 100	–	< 100	< 100	100 to 1000
O=C(NNC(=O)N1CCOCC1)[C@@H]1CC[C@@H]2CN1C(=O)N2OS(=O)(=O)O [Example 50, Sodium (2S,5R)—N′-(morpholin-4-ylcarbonyl)-7-oxo-6-(sulfooxy)-1,6-diazabicyclo[3.2.1]octane-2-carbohydrazide]	100 to 1000	–	100 to 1000	< 100	3000 to 10000
CONC(=O)[C@@H]1CC[C@@H]2CN1C(=O)N2OS(=O)(=O)O [Example 56, Sodium (2S,5R)—N-methoxy-7-oxo-6-(sulfooxy)-1,6-diazabicyclo[3.2.1]octane-2-carboxamide]	< 100	–	100 to 1000	100 to 1000	1000 to 3000
O=C(NNC(=O)[C@@H]1CC[C@@H]2CN1C(=O)N2OS(=O)(=O)O)C1CCNCC1 [Example 35, (2S,5R)-7-Oxo-N′-(piperidine-4-ylcarbonyl)-6-(sulfooxy)-1,6-diazabicyclo[3.2.1]octane-2-carbohydrazide]	< 100	1000 to 3000	3000 to 10000	100 to 1000	–
CC(C)C(=O)NNC(=O)[C@@H]1CC[C@@H]2CN1C(=O)N2OS(=O)(=O)O [Example 23, Sodium (2S,5R)—N′-(2-methylpropanoyl)-7-oxo-6-(sulfooxy)-1,6-diazabicyclo[3.2.1]octane-2-carbohydrazide]	< 100	–	100 to 1000	100 to 1000	3000 to 10000
O=C(NOCCN1CCNC1=O)[C@@H]1CC[C@@H]2CN1C(=O)N2OS(=O)(=O)O [Example 94, Sodium (2S,5R)-7-oxo-N-[2-(2-oxoimidazolidin-1-yl)ethoxy]-6-(sulfooxy)-1,6-diazabicyclo[3.2.1]octane-2-carboxamide]	< 100	–	100 to 1000	< 100	100 to 1000
O=C(NOC1CCNCC1)[C@@H]1CC[C@@H]2CN1C(=O)N2OS(=O)(=O)O [Example 84, (2S,5R)-7-Oxo-N-(piperidine-4-yloxy)-6-(sulfooxy)-1,6-diazabicyclo[3.2.1]octane-2-carboxamide]	< 100	100 to 1000	1000 to 3000	< 100	–
C[C@H](N)CONC(=O)[C@@H]1CC[C@@H]2CN1C(=O)N2OS(=O)(=O)O [Example 66, (2S,5R)—N-{[(2S)-2-Aminopropyl]oxy}-7-oxo-6-(sulfooxy)-1,6-diazabicyclo[3.2.1]octane-2-carboxamide]	< 100	1000 to 3000	1000 to 3000	100 to 1000	–
Nc1ccc(C(=O)NNC(=O)[C@@H]2CC[C@@H]3CN2C(=O)N3OS(=O)(=O)O)cc1 [Example 31, (2S,5R)—N′-(4-Aminobenzoyl)-7-oxo-6-(sulfooxy)-1,6-diazabicyclo[3.2.1]octane-2-carbohydrazide]	< 100	3000 to 10000	100 to 1000	100 to 1000	–
C[C@@H](N)CONC(=O)[C@@H]1CC[C@@H]2CN1C(=O)N2OS(=O)(=O)O [Example 67, (2S,5R)—N-{[(2R)-2-Aminopropyl]oxy}-7-oxo-6-(sulfooxy)-1,6-diazabicyclo[3.2.1]octane-2-carboxamide]	< 100	1000 to 3000	1000 to 3000	100 to 1000	–
O=C(NOC[C@@H]1CCCCN1)[C@@H]1CC[C@@H]2CN1C(=O)N2OS(=O)(=O)O [Example 78, (2S,5R)-7-Oxo-N-[(2S)-piperidine-2-ylmethoxy]-6-(sulfooxy)-1,6-diazabicyclo[3.2.1]octane-2-carboxamide]	< 100	1000 to 3000	1000 to 3000	100 to 1000	–
CS(=O)(=O)CCONC(=O)[C@@H]1CC[C@@H]2CN1C(=O)N2OS(=O)(=O)O [Example 97, Sodium (2S,5R)—N-[2-(methylsulfonyl)ethoxy]-7-oxo-6-(sulfooxy)-1,6-diazabicyclo[3.2.1]octane-2-carboxamide]	< 100	–	< 100	< 100	100 to 1000
CCN(CC)C(=O)NNC(=O)[C@@H]1CC[C@@H]2CN1C(=O)N2OS(=O)(=O)O [Example 48, Sodium N,N-diethyl2-{[(2S,5R)-7-oxo-6-(sulfooxy)-1,6-diazabicyclo[3.2.1]oct-2-yl]carbonyl}hydrazinecarboxamide]	100 to 1000	–	100 to 1000	< 100	3000 to 10000
O=C([C@@H]1CC[C@@H]2CN1C(=O)N2OS(=O)(=O)O)N1CCCO1 [Example 70, Sodium (2S,5R)-2-(1,2-oxazolidin-2-ylcarbonyl)-6-(sulfooxy)-1,6-diazabicyclo[3.2.1]octane-7-one]	< 100	–	100 to 1000	100 to 1000	100 to 1000
CN(C)NC(=O)[C@@H]1CC[C@@H]2CN1C(=O)N2OS(=O)(=O)O (racemic) [Example 20, Sodium (2SR,5RS)—N′,N′-dimethyl-7-oxo-6-(sulfooxy)-1,6-diazabicyclo[3.2.1]octane-2-carbohydrazide]	100 to 1000	–	1000 to 3000	100 to 1000	3000 to 10000
O=C(NOCCN1CCCNCC1)[C@@H]1CC[C@@H]2CN1C(=O)N2OS(=O)(=O)O [Example 74, (2S,5R)-7-Oxo-N-[2-(1,4-diazepan-1-yl)ethoxy]-6-(sulfooxy)-1,6-diazabicyclo[3.2.1]octane-2-carboxamide]	< 100	100 to 1000	100 to 1000	< 100	–
CN(NC(=O)[C@@H]1CC[C@@H]2CN1C(=O)N2OS(=O)(=O)O)C(=O)OC(C)(C)C (racemic) [Example 18, Sodium tert-butyl 1-methyl-2-{[(2SR,5RS)-7-oxo-6-(sulfooxy)-1,6-diazabicyclo[3.2.1]oct-2-yl]carbonyl}hydrazinecarboxylate]	< 100	–	100 to 1000	100 to 1000	1000 to 3000
O=C(NOCC(=O)N1CCOCC1)[C@@H]1CC[C@@H]2CN1C(=O)N2OS(=O)(=O)O [Example 91, Sodium (2S,5R)—N-[2-(morpholin-4-yl)-2-oxoethoxy]-7-oxo-6-(sulfooxy)-1,6-diazabicyclo[3.2.1]octane-2-carboxamide]	< 100	–	< 100	< 100	100 to 1000
CN(C)CCONC(=O)[C@@H]1CC[C@@H]2CN1C(=O)N2OS(=O)(=O)O [Example 65, (2S,5R)—N-[2-(Dimethylamino)ethoxy]-7-oxo-6-(sulfooxy)-1,6-diazabicyclo[3.2.1]octane-2-carboxamide]	100 to 1000	1000 to 3000	1000 to 3000	100 to 1000	–
